Experiments:
PKA = PKA inhibition assay; format: biochemical
Source text: (§1) Methods for obtaining A-type and P-type mediators are set out in Caro et al, 1997, and in WO98/11116 and WO98/11117. Protocols for determining characteristic IPG biological activities such as PDH activation, PKA inhibition, acetylCoA activation, fructose-1,6-bis-phosphatase activity and lipogenesis are well known in the art, e.g. as described in Caro et al ^[14].
(§2) The compounds of the invention can be tested for one or more the characteristic IPGP and/or IPG-A activities mentioned above to determine whether they will be suitable for use a IPG mimetics or antagonists. Preferred assays measure the effect of the compounds on PDH phosphatasc, PKA or lipogenesis. Protocols for these assays are provided in Caro et al ^[14].

PDH phosphatase = experiment: PDH activation assay; format: biochemical
Source text: as §1, §2

| Structure (SMILES) | PKA inhibition at 0.1 μM (PKA) [%] | PDH activation at 100 μM (PDH phosphatase) [%] |
| --- | --- | --- |
| NC1C(OC2C(O)C(O)C(O)C(O)C2O)OC(CO)C(OC2OC(CO)C(O)C(O)C2O)C1O [RGL1014, O-α-D-Galactopyranosyl-(1-4)-(2-amino-2-deoxy-α-D-glucopyranosyl)-(1-6)-D-myo-inositol] | 2 | – |
| NC1C(OC2C(O)C(O)C(O)C(O)C2O)OC(CO)C(OC2OC(CO)C(O)C(O)C2O)C1O [RGL1021, O-(α-D-galactopyranosyl)-(1-4)-(2-amino-2-deoxy-α-D-glucopyranosyl)-(1-6)-D-chiro-inositol] | – | 14 |
| NC1C(OC2C(O)C(O)C(O)C(O)C2OP(=O)(O)O)OC(CO)C(OC2OC(CO)C(O)C(O)C2O)C1O [RGL1022, O-α-D-galactopyranosyl-(1-4)-2-ammonio-2-deoxy-α-D-glucopyranosyl-(1-6)-D-chiro-inositol-1-phosphate] | 47 | – |
